For four molecules, mutagenic call results are on record in PubChem BioAssay AID1259407 (Chemical Carcinogenesis Research Information System (CCRIS), 2018).

Calls of active or inactive are those of the source. How the calls were made is not given here.

The series concerns CCRIS mutagenicity, Ames/micronucleus/aberration tests. As to the kind of experiment: CCRIS mutagenicity studies. The conditions noted are these: Test System: AMES SALMONELLA TYPHIMURIUM
Setting [1] is: Strain/Indicator: TA98, Metabolic Activation: NONE, Method: PREINCUBATION
Setting [2] is: Strain/Indicator: TA100, Metabolic Activation: NONE, Method: PREINCUBATION
[3] abbreviates: Strain/Indicator: TA102, Metabolic Activation: NONE, Method: PREINCUBATION
The mark [4] stands for this setting: Strain/Indicator: TA104, Metabolic Activation: NONE, Method: PREINCUBATION
The mark [5] stands for this setting: Strain/Indicator: TA1535, Metabolic Activation: NONE, Method: PREINCUBATION
The mark [6] stands for this setting: Strain/Indicator: TA1537, Metabolic Activation: NONE, Method: PREINCUBATION

For `CC(C)=CCC1=C(O)c2ccccc2C(=O)C1=O`, the mutagenic call was “inactive; negative” (Strain/Indicator: TA97, Metabolic Activation: NONE, Method: PREINCUBATION); “inactive; negative” (Strain/Indicator: TA97, Metabolic Activation: RAT, LIVER, S-9, PHENOBARBITAL AND 5,6-BENZOFLAVONE, Method: PREINCUBATION); “inactive; negative” (Strain/Indicator: TA98, Metabolic Activation: HAMSTER, LIVER, S-9, AROCLOR 1254, Method: STANDARD PLATE); “inactive; negative” under setting [1]; “inactive; negative” (Strain/Indicator: TA98, Metabolic Activation: NONE, Method: STANDARD PLATE); “inactive; negative” (Strain/Indicator: TA98, Metabolic Activation: RAT, LIVER, S-9, AROCLOR 1254, Method: STANDARD PLATE). The mutagenic call reads like this: (Strain/Indicator: TA98, Metabolic Activation: RAT, LIVER, S-9, PHENOBARBITAL AND 5,6-BENZOFLAVONE, Method: PREINCUBATION) “inactive; negative”; (Strain/Indicator: TA100, Metabolic Activation: HAMSTER, LIVER, S-9, AROCLOR 1254, Method: STANDARD PLATE) “inactive; negative”; under setting [2], “inactive; negative”; (Strain/Indicator: TA100, Metabolic Activation: NONE, Method: STANDARD PLATE) “inactive; negative”; (Strain/Indicator: TA100, Metabolic Activation: RAT, LIVER, S-9, AROCLOR 1254, Method: STANDARD PLATE) “inactive; negative”; (Strain/Indicator: TA100, Metabolic Activation: RAT, LIVER, S-9, PHENOBARBITAL AND 5,6-BENZOFLAVONE, Method: PREINCUBATION) “inactive; negative”. Besides, the mutagenic call under setting [3] was “inactive; negative”; the mutagenic call (Strain/Indicator: TA102, Metabolic Activation: RAT, LIVER, S-9, PHENOBARBITAL AND 5,6-BENZOFLAVONE, Method: PREINCUBATION) is “inactive; negative”; the mutagenic call under setting [4] is “inactive; negative”; the mutagenic call (Strain/Indicator: TA104, Metabolic Activation: RAT, LIVER, S-9, PHENOBARBITAL AND 5,6-BENZOFLAVONE, Method: PREINCUBATION) is “inactive; negative”; the mutagenic call (Strain/Indicator: TA1535, Metabolic Activation: HAMSTER, LIVER, S-9, AROCLOR 1254, Method: STANDARD PLATE) is “inactive; negative”; the mutagenic call under setting [5] was “inactive; negative”. In addition, the mutagenic call runs as follows: (Strain/Indicator: TA1535, Metabolic Activation: NONE, Method: STANDARD PLATE) “inactive; negative”; (Strain/Indicator: TA1535, Metabolic Activation: RAT, LIVER, S-9, AROCLOR 1254, Method: STANDARD PLATE) “inactive; negative”; (Strain/Indicator: TA1535, Metabolic Activation: RAT, LIVER, S-9, PHENOBARBITAL AND 5,6-BENZOFLAVONE, Method: PREINCUBATION) “inactive; negative”; (Strain/Indicator: TA1537, Metabolic Activation: HAMSTER, LIVER, S-9, AROCLOR 1254, Method: STANDARD PLATE) “inactive; negative”; under setting [6], “inactive; negative”; (Strain/Indicator: TA1537, Metabolic Activation: NONE, Method: STANDARD PLATE) “inactive; negative”. The mutagenic call was “inactive; negative” (Strain/Indicator: TA1537, Metabolic Activation: RAT, LIVER, S-9, AROCLOR 1254, Method: STANDARD PLATE); “inactive; negative” (Strain/Indicator: TA1537, Metabolic Activation: RAT, LIVER, S-9, PHENOBARBITAL AND 5,6-BENZOFLAVONE, Method: PREINCUBATION); “inactive; negative” (Strain/Indicator: TA1538, Metabolic Activation: HAMSTER, LIVER, S-9, AROCLOR 1254, Method: STANDARD PLATE); “inactive; negative” (Strain/Indicator: TA1538, Metabolic Activation: NONE, Method: PREINCUBATION); “inactive; negative” (Strain/Indicator: TA1538, Metabolic Activation: NONE, Method: STANDARD PLATE); “inactive; negative” (Strain/Indicator: TA1538, Metabolic Activation: RAT, LIVER, S-9, AROCLOR 1254, Method: STANDARD PLATE). Moreover, the mutagenic call is “inactive; negative” (Strain/Indicator: TA1538, Metabolic Activation: RAT, LIVER, S-9, PHENOBARBITAL AND 5,6-BENZOFLAVONE, Method: PREINCUBATION); “inactive; negative” (Strain/Indicator: TA2637, Metabolic Activation: NONE, Method: PREINCUBATION); “inactive; negative” (Strain/Indicator: TA2637, Metabolic Activation: RAT, LIVER, S-9, PHENOBARBITAL AND 5,6-BENZOFLAVONE, Method: PREINCUBATION).
With `O=c1ccc2c(cc3ccc4cccc5ccc2c3c45)c1=O`, the mutagenic call is, setting by setting: (Strain/Indicator: TA97A, Metabolic Activation: NONE, Method: PREINCUBATION) “active; positive”; under setting [1], “inactive; negative”; under setting [2], “inactive; negative”; under setting [3], “inactive; negative”; under setting [4], “inactive; negative”.
Turning to `O[C@H]1C=Cc2c(ccc3c(Cl)c4ccccc4cc23)[C@@H]1O`, the mutagenic call (Strain/Indicator: TA100, Metabolic Activation: RAT, LIVER, S-9, PCB, Method: STANDARD PLATE) was “active; positive”.
As for `OCCN1CN(CCO)CN(CCO)C1`, the mutagenic call (Strain/Indicator: TA98, Metabolic Activation: HAMSTER, LIVER, S-9, AROCLOR 1254 (10%), Method: PREINCUBATION) is “inactive; negative”; the mutagenic call under setting [1] was “inactive; negative”; the mutagenic call (Strain/Indicator: TA98, Metabolic Activation: RAT, LIVER, S-9, AROCLOR 1254 (10%), Method: PREINCUBATION) was “inactive; negative”; the mutagenic call (Strain/Indicator: TA100, Metabolic Activation: HAMSTER, LIVER, S-9, AROCLOR 1254 (10%), Method: PREINCUBATION) was “active; positive”; the mutagenic call under setting [2] is “inactive; negative”; the mutagenic call (Strain/Indicator: TA100, Metabolic Activation: RAT, LIVER, S-9, AROCLOR 1254 (10%), Method: PREINCUBATION) is “inactive; negative”. Moreover, the mutagenic call was “inactive; negative” (Strain/Indicator: TA1535, Metabolic Activation: HAMSTER, LIVER, S-9, AROCLOR 1254 (10%), Method: PREINCUBATION); “inactive; negative” under setting [5]; “inactive; negative” (Strain/Indicator: TA1535, Metabolic Activation: RAT, LIVER, S-9, AROCLOR 1254 (10%), Method: PREINCUBATION); “inactive; negative” (Strain/Indicator: TA1537, Metabolic Activation: HAMSTER, LIVER, S-9, AROCLOR 1254 (10%), Method: PREINCUBATION); “inactive; negative” under setting [6]; “inactive; negative” (Strain/Indicator: TA1537, Metabolic Activation: RAT, LIVER, S-9, AROCLOR 1254 (10%), Method: PREINCUBATION).
